Tests used:
[1] = test system: Plasmodium falciparum; assay: Antimalarial activity against drug-resistant Plasmodium falciparum K1CB1 after 48 hrs by SYBR Green1 dye based fluorescence assay; format: functional, organism-based; details: K1CB1, 48 h
[2] = test system: Plasmodium falciparum; assay: Antimalarial activity against drug-sensitive Plasmodium falciparum TM4/8.2 after 48 hrs by SYBR Green1 dye based fluorescence assay; format: functional, organism-based; details: TM4/8.2, 48 h
[3] = test system: Vero; assay: Cytotoxicity against African green monkey Vero cells; format: cell-based; details: Chlorocebus sabaeus
[4] = test system: KB; assay: Cytotoxicity against human KB cells; format: functional, cell-based

Measured: IC50

CC1(C)O[C@H]2C=C[C@@H](OC(=O)c3ccccc3)[C@H](O)[C@@]2(COC(=O)c2ccccc2)O1
> 50 µM: all assays above

O=C(OC[C@]1(O)[C@H](OC(=O)c2ccccc2)C=C[C@@H](OC(=O)c2ccccc2)[C@@H]1O)c1ccccc1
> 50 µM: all assays above

O=C(OCC1=C[C@H]2Oc3ccccc3C[C@H]2[C@@H](OC(=O)c2ccccc2)[C@@H]1O)c1ccccc1
> 50 µM: all assays above

CC(=O)O[C@H]1C=CC=C(COC(=O)c2ccccc2)[C@@H]1O
> 50 µM: all assays above

O=C(OC[C@]1(O)[C@H](Cl)C=C[C@@H](OC(=O)c2ccccc2)[C@@H]1O)c1ccccc1
> 50 µM: all assays above

O=C(OCC1=C[C@@H](O)[C@H](O)[C@H](OC(=O)c2ccccc2)[C@H]1O)c1ccccc1
> 50 µM: all assays above

O=C(OC[C@]1(O)[C@H](Cl)C=C[C@H](O)[C@H]1O)c1ccccc1
> 50 µM: all assays above

CC(=O)O[C@H]1C=C[C@@H](Cl)[C@@](O)(COC(=O)c2ccccc2)[C@@H]1O
> 50 µM: all assays above

O=C(OC[C@]12O[C@H]1C=C[C@@H](OC(=O)c1ccccc1)[C@H]2O)c1ccccc1
> 50 µM: all assays above

O=C(OC[C@]1(O)[C@@H](O)C=C[C@@H](O)[C@@H]1O)c1ccccc1
> 50 µM: all assays above

CC(=O)O[C@H]1C=CC=C[C@@]1(O)COC(=O)c1ccccc1
> 50 µM: all assays above

CC(=O)O[C@H]1C=C[C@@H](O)[C@H](O)[C@@]1(O)COC(=O)c1ccccc1
> 50 µM: all assays above

CC(=O)O[C@@H]1C=C[C@@H](OC(=O)c2ccccc2)[C@H](O)[C@]1(O)COC(=O)c1ccccc1
> 50 µM: all assays above

O=C(OC/C=C/C=C/[C@H](O)COC(=O)c1ccccc1)c1ccccc1
> 50 µM: all assays above

COc1ccc2c(c1)C[C@H]1[C@@H](OC(=O)c3ccccc3)[C@H](O)C(COC(=O)c3ccccc3)=C[C@H]1O2
> 50 µM: all assays above

Source: ChEMBL document CHEMBL4371096, “Polyoxygenated Cyclohexenes and Their Chlorinated Derivatives from the Leaves of Uvaria cherrevensis” (J Nat Prod, 2019)
